Tests used:
HeLa cells = assay: cell based caspase 3 assay; settings: oligonucleotide 50 nM transfected 24 h, then 10 nM gemcitabine HCl or 1.25 nM paclitaxel for additional 48 h, compared to untreated control
Method: The assay is performed as described below.
HeLa cells are obtained from ATCC, Manassas, Va. and are cultured in DMEM with L-Glutamine medium (Gibco/Invitrogen) supplemented with 10% Fetal Bovine Serum (Hyclone), 0.1 mM Non-Essential Amino Acids, and 1 mM Sodium Pyruvate (Gibco/Invitrogen). For the caspase-3 assay, 96-well plates are plated with 1×10^4 cells/well. […] Caspases-3 activity is measured by reading proteolytically released fluor from the Ac-DEVD-AMC substrate using a plate-reading fluorometer with excitation at 360 nm and emission at 460 nm. After subtracting the plate background, the relative fluorescence units (RFU) are compared to untreated control and expressed as percentage increase in caspase-3 activity.
To investigate whether down-regulation of Survivin expression sensitizes HeLa cells to chemotherapy, combination treatment with Compound I and either gemcitabine HCl, doxorubicin HCl, or paclitaxel is evaluated. […] At the end of the incubation period, casapse-3 activity is measured. […] Data are expressed as percentage caspase-3 activity compared to untreated control.

[1] = test system: U-87 MG human glioblastoma; assay: human xenograft tumor model, tumor growth delay; type: in vivo; settings: U-87 MG s.c. xenograft; oligonucleotide 50 mg/kg loading then 25 mg/kg i.v. every other day; gemcitabine HCl 2.5 mg/kg i.p. every third day x4
Method: The use of human xenograft tumor models has been described previously and is well known in the art. The following tumor types can be used to conduct the assay as described below. U-87 MG human glioblastoma are obtained from […] et al., Neoplasia (2000) 2(3):242-50). For xenograft studies, just before implantation, animals are irradiated (450 TBI (total body irradiation)), and cells are mixed in matrigel (1:1). […] All subsequent intravenous doses (25 mg/kg) of Compound I or MM control oligonucleotide are administered every other day. The treatment with sub-optimal doses of gemcitabine HCl, doxorubicin HCl, or paclitaxel is initiated one day following the loading dose. Gemcitabine HCl is administered intraperitoneally at 2.5 mg/kg every third day for a total of four doses. Paclitaxel is administered intravenously at 1 mg/kg every fourth day for a total of four doses. Bi-dimensional measurements are performed twice per week, and tumor volumes are calculated based on the following formula: […] Tumor volume data are transformed to a log scale to equalize variance across time and treatment groups. The data are analyzed using a two-way analysis of variance by time and treatment using SAS PROC MIXED software (SAS Institute, Inc., Cary, N.C.). The preferred correlation model for the repeated measures is AR (Auto Regressive of order 1). Treatment groups are compared at each time point. The data are plotted as means and standard errors for each treatment group versus time. The presence of synergy in combination therapies is assessed on the tumor growth delay (TGD) scale. The time to reach a specified tumor size (1500 or 2000 or 2500 mg in this study) is determined for each animal. […] Maximum likelihood analysis assuming a Weibull distribution is used to calculate mean times and standard errors for each treatment group. Tumor growth delay is the difference in mean times between each of the treated groups and the control group.

Compound	Mean (% Caspase-3 Activity) (HeLa cells) [%]	Tumor Growth Delay at 1500 mg, Mean ± S.E.M. [1] [days]	Tumor Growth Delay at 2000 mg, Mean ± S.E.M. [1] [days]	Tumor Growth Delay at 2500 mg, Mean ± S.E.M. [1] [days]
CC(=O)O[C@H]1C(=O)[C@@]2(C)[C@H]([C@H](OC(=O)c3ccccc3)[C@]3(O)C[C@H](OC(=O)[C@H](O)[C@@H](NC(=O)c4ccccc4)c4ccccc4)C(C)=C1C3(C)C)[C@]1(OC(C)=O)CO[C@@H]1C[C@@H]2O [Paclitaxel, 5β, 20-Epoxy-1,2α,4,7β,10β,13α-hexahydroxytax-11-en-9-one 4,10-diacetate 2-benzoate 13-ester with (2R,3 S)—N-benzoyl-3-phenylisoserine]	12.77			
Cl.Nc1ccn([C@@H]2O[C@H](CO)[C@@H](O)C2(F)F)c(=O)n1 (single isomer, unassigned) [Gemcitabine HCl, 2′-deoxy-2′,2′-difluorocytidine monohydrochloride (⊖-isomer)]	24.33	0.3 ± 1.1	0.3 ± 1.2	0.6 ± 1
